Data from patent publication US12065654B2, “Plants having increased tolerance to herbicides” (BASF SE, priority 2014, dated 2024).

Key:
[1] = target: T1, Hordeum HPPD (SEQ ID NO:2) (Hordeum vulgare, UniProt O48604, A164G/R146V/R147D/R148G); test: HPPD activity assay; assay type: biochemical; conditions: Hordeum HPPD
T1 construct: His-tag (N); made in house; host or cells: E. coli BL21 (DE3)
Protocol: (§1) The activity assay for HPPD is based on the analysis of homogentisic acid by reversed phase HPLC.
(§2) The assay mixture can contain 150 mM potassium phosphate buffer pH 7.0, 50 mM L-ascorbic acid, 100 μM Catalase (Sigma-Aldrich), 1 μM FeSO4 and 0.2 units of purified HPPD enzyme in a total volume of 505 μl. 1 unit is defined as the amount of enzyme that is required to produce 1 nmol of HGA per minute at 20° C.
(§3) The reaction is allowed to proceed for 45 min at room temperature. The reaction is stopped by the addition of 50 μl of 4.5 M phosphoric acid. The sample is filtered using a […] pore size PVDF filtration device. 5 μl of the cleared sample is analyzed on an UPLC HSS T3 column (particle size 1.8 μm, dimensions 2, 1×50 mm; Waters) by isocratic elution using 90% 20 mM NaH2PO4 pH 2.2, 10% methanol (v/v).
(§4) HGA is detected electrochemically at 750 mV (mode: DC; polarity: positive) and quantified by integrating peak areas (Empower software; Waters).
(§5) Inhibitors are dissolved in DMSO (dimethylsulfoxide) to a concentration of 0.5 mM. From this stock solution serial five-fold dilutions are prepared in DMSO, which are used in the assay. The respective inhibitor solution accounts for 1% of the assay volume. Thus, final inhibitor concentrations range from 5 μM to 320 pM, respectively. Activities are normalized by setting the uninhibited enzyme activity to 100%. IC50 values are calculated using non-linear regression.
(§6) Using methods which are described in the above examples or well known in the art, purified recombinant wild-type HPPD enzymes are characterized with respect to their kinetic properties and sensitivity towards HPPD inhibiting herbicides. Apparent michaelis constants (Km) and maximal reaction velocities (Vmax) are calculated by non-linear regression with the software GraphPad Prism 5 (GraphPad Software, La Jolla, USA) using a substrate inhibition model. […] Weighted means (by standard error) of Km and IC50 values are calculated from at least three independent experiments. The Cheng-Prusoff equation for competitive inhibition (Cheng, Y. C.; Prusoff, W. H. Biochem Pharmacol 1973, 22, 3099-3108) is used to calculate dissociation constants (Ki).
(§7) Field performance of the HPPD enzyme, which is used as a herbicide tolerance trait may depend not only on its lack of sensitivity towards HPPD inhibiting herbicides but also on its activity. To assess the potential performance of a herbicide tolerance trait a tolerance index (TI) is calculated using the following formula: […]
(§8) Easy comparison and ranking of each trait is enabled by normalizing tolerance indexes on Arabidopsis wild-type HPPD.

[2] = target: T2, Arabidopsis HPPD (SEQ ID NO:53) (Arabidopsis thaliana, UniProt P93836); test: HPPD activity assay (HPLC of homogentisic acid); assay type: biochemical; conditions: Arabidopsis HPPD
T2 construct: His6 (N); made in house; host or cells: E. coli BL21 (DE3)
T2 sequence (P93836 1-445): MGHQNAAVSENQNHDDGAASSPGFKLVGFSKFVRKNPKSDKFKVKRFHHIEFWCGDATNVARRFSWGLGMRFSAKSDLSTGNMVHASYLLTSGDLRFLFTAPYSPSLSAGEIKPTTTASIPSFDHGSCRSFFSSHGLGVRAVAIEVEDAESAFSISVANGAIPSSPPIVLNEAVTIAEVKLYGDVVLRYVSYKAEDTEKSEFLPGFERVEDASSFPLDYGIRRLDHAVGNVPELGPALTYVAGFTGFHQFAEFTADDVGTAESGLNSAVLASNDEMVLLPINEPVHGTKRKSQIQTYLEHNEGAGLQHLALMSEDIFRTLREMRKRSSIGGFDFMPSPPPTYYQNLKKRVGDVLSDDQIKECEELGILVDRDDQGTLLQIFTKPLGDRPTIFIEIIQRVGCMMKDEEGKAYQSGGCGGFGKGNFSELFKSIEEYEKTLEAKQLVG
Protocol: as §1, §2, §3, §4, §5, §6, §7, §8

[3] = turnover number, substrate 4-HPP
[4] = read-out: Km [μM] (4-HPP), apparent michaelis constant

T1 sequence (O48604 whole entry R146V/R147D/R148G/A164G): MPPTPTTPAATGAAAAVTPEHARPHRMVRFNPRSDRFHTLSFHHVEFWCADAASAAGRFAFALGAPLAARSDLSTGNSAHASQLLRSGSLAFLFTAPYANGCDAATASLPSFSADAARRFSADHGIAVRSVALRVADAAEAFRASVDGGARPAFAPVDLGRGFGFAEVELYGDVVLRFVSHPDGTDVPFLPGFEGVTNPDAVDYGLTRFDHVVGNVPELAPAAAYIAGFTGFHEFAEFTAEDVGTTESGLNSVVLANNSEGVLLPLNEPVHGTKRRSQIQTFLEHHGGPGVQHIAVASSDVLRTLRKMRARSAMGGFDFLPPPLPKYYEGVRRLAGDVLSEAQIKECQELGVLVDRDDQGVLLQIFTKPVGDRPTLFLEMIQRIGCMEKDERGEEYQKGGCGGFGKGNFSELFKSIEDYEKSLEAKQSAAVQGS

In the case of `O=C(O)C(=O)Cc1ccc(O)cc1` [Inhibitor 4-HPP, 4-hydroxyphenylpyruvate], the “kcat” value [1, 3] is reported as 11.5 s⁻¹, the Km [1, 4] is reported as 26 µM and the “kcat” value [2, 3] is reported as 12.9 s⁻¹. The Km [2, 4] was 13 µM.
